# Measurements reported in US20240409585A1, “MACROCYCLIC IMMUNOMODULATORS” (priority 2021, published 2024).
# Numbered stars: 1 amine (or outer) side, 2 acyl side, 3 side chain; on linkers, the order of the positions; unused ones are H or OH. Bridge positions count the residues as written; N and C are the ends. Square brackets hold non-standard residues; d marks the D form. Peptide text beside a SMILES is read from it. * marks the point of attachment. X15 = COC(=O)c1ccc(NS(=O)(=O)NC(=O)C[C@H](N[*:1])C(=O)[*:2])cc1; Bip(4'-COOH) = N[C@@H](Cc1ccc(-c2ccc(C(=O)O)cc2)cc1)C(=O)O; Bip(4'-NHAc) = CC(=O)Nc1ccc(-c2ccc(C[C@H](N)C(=O)O)cc2)cc1; X17 = Nc1ccc(-c2cccc(C[C@H](N[*:1])C(=O)[*:2])c2)cn1; Phe(3-CF3) = N[C@@H](Cc1cccc(C(F)(F)F)c1)C(=O)O; Ala(morpholin-4-yl) = N[C@@H](CN1CCOCC1)C(=O)O; Phe(4-CONH2) = NC(=O)c1ccc(C[C@H](N)C(=O)O)cc1; Phe(4-COOH) = N[C@@H](Cc1ccc(C(=O)O)cc1)C(=O)O; X5 = CS(=O)(=O)NC(=O)C[C@H](N[*:1])C(=O)[*:2]; Bip = N[C@@H](Cc1ccc(-c2ccccc2)cc1)C(=O)O; Phe(3-Me) = Cc1cccc(C[C@H](N)C(=O)O)c1; Abu(3S-NH2) = C[C@H](N)[C@H](N)C(=O)O; Nva(5-OH) = N[C@@H](CCCO)C(=O)O; Cha = N[C@@H](CC1CCCCC1)C(=O)O; Carboxymethyl = O=C(O)C*; NMeA = CN[C@@H](C)C(=O)O; Orn = NCCC[C@H](N)C(=O)O; Dab = NCC[C@H](N)C(=O)O
# Molecular target: T1, PE-labeled human PD-L1-Ig binding to Jurkat cell line over-expressing human PD-1 (Jurkat-PD-1) (Homo sapiens, UniProt Q15116)
# T1 construct: expressed in transfected cells; host or cells: Jurkat
# Assay: Jurkat-PD-1 Cell Binding High-Content Screening Assay (CBA): Method 1
# Conditions: Jurkat-PD-1 cells, PE-labeled PD-L1-Ig; μM; read-out: CBA Method 1 μM
# T1 sequence (Q15116 25-288): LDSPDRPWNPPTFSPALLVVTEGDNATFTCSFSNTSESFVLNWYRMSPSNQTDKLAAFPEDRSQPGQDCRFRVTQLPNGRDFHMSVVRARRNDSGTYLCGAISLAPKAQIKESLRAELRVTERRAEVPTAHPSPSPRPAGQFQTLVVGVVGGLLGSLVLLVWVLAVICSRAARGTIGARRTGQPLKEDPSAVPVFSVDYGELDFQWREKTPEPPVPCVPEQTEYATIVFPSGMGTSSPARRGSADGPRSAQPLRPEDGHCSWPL
row,IC50 [µM],SMILES
1,0.355,COC(=O)c1ccc(NS(=O)(=O)NC(=O)C[C@@H]2NC(=O)[C@H](Cc3ccc(C(=O)O)cc3)NC(=O)[C@H](CN3CCOCC3)NC(=O)CSC[C@@H](C(=O)N[C@@H](CCN)C(N)=O)NC(=O)[C@H](CCCN)NC(=O)[C@H](C(C)C)NC(=O)[C@H](CC3CCCCC3)NC(=O)[C@H](CCN)NC(=O)[C@@H](CC(C)C)NC(=O)[C@H](C)N(C)C(=O)[C@H](CCC(N)=O)NC(=O)[C@H](Cc3ccc(-c4ccccc4)cc3)NC(=O)[C@H](Cc3ccc(C(=O)O)cc3)NC(=O)[C@H](Cc3cccc(C(F)(F)F)c3)NC2=O)cc1 [Example 5083] ({CH2CO}-[Ala(morpholin-4-yl)][Phe(4-COOH)][X15][Phe(3-CF3)][Phe(4-COOH)][Bip]Q[NMeA][dL][Dab][Cha]V[Orn]C[Dab]-NH2; thioether N-14)

# Molecular target: T2, Alexa fluor-647 labeled human PD-L1-Ig binding to Jurkat cell line over-expressing human PD-1 (Homo sapiens, UniProt Q15116)
# T2 construct: expressed in transfected cells; host or cells: Jurkat
# Assay: Jurkat-PD-1 Cell Binding High-Content Screening Assay (CBA): Method 3 (Alexa fluor-647 labeled PD-L1-Ig)
# Conditions: Jurkat-PD-1 cells, Alexa fluor-647 labeled PD-L1-Ig 177 nM; head μM; read-out: CBA Method 3 μM
# Method: Jurkat-PD-1 Cell Binding High-Content Screening Assay (CBA): Method 3
# Alexa fluor-647 was covalently linked to the Ig epitope tag of human PD-L1-Ig and fluorescently labeled PD-L1-Ig was used for the binding studies with a Jurkat cell line over-expressing human PD-1. Briefly, 2.5×10^4 Jurkat-hPD-1 cells were seeded into 384 well plates in 20 μl of RPMI supplemented with 10% fetal calf serum. 12.5 nl of compound was added to cells followed by incubation at 37° C. for 2 hours. Then, 10 ul of Alexa fluor-647 labeled PD-L1-Ig (177 nM final), diluted in RPMI supplemented with 10% fetal calf serum was added to the cells and incubated for 1 hour. Cells were then fixed with 4% paraformaldehyde containing 10 μg/ml Hoechst 33342 and then washed 3× in 100 ul PBS and 100 ul of PBS was added in the final step. Data was collected using the Operetta High Content Imager and the data was analyzed using the columbus software.
# T2 sequence (Q15116 25-288): as above
row,IC50 [µM],SMILES
1,0.1,CC(=O)Nc1ccc(-c2ccc(C[C@@H]3NC(=O)[C@H](Cc4cccc(C)c4)NC(=O)[C@H](CC(=O)O)NC(=O)[C@H](Cc4ccc(-c5ccc(C(=O)O)cc5)cc4)NC(=O)[C@H](CN4CCOCC4)NC(=O)CSC[C@@H](C(=O)N[C@@H](CCN)C(N)=O)NC(=O)[C@H](CCC(=O)O)NC(=O)[C@H](C(C)C)NC(=O)[C@H](CC4CCCCC4)NC(=O)[C@H](CCN)NC(=O)[C@@H](CC(C)C)NC(=O)[C@H](C)N(C)C(=O)[C@H](Cc4ccc(C(=O)O)cc4)NC(=O)[C@H](Cc4ccc(-c5ccccc5)cc4)NC3=O)cc2)cc1 [Example 5092] ({CH2CO}-[Ala(morpholin-4-yl)][Bip(4'-COOH)]D[Phe(3-Me)][Bip(4'-NHAc)][Bip][Phe(4-COOH)][NMeA][dL][Dab][Cha]VEC[Dab]-NH2; thioether N-14)
2,0.03,CC(=O)Nc1ccc(-c2ccc(C[C@@H]3NC(=O)[C@H](Cc4cccc(C(F)(F)F)c4)NC(=O)[C@H](CC(=O)O)NC(=O)[C@H](Cc4ccc(C(=O)O)cc4)NC(=O)[C@H](CC(C)C)NC(=O)CSC[C@@H](C(=O)N[C@@H](CCN)C(N)=O)NC(=O)[C@H](CCC(=O)O)NC(=O)[C@H](C(C)C)NC(=O)[C@H](CC4CCCCC4)NC(=O)[C@H](CCN)NC(=O)[C@@H](CC(C)C)NC(=O)[C@H](C)N(C)C(=O)[C@H](CCCN)NC(=O)[C@H](Cc4ccc(-c5ccccc5)cc4)NC3=O)cc2)cc1 [Example 5094] ({CH2CO}-L[Phe(4-COOH)]D[Phe(3-CF3)][Bip(4'-NHAc)][Bip][Orn][NMeA][dL][Dab][Cha]VEC[Dab]-NH2; thioether N-14)
3,0.02,CC(=O)Nc1ccc(-c2ccc(C[C@@H]3NC(=O)[C@H](Cc4cccc(C(F)(F)F)c4)NC(=O)[C@H](CC(=O)O)NC(=O)[C@H](Cc4ccc(C(=O)O)cc4)NC(=O)[C@H](CCN)NC(=O)CSC[C@@H](C(=O)N[C@@H](CCN)C(N)=O)NC(=O)[C@H](CCC(N)=O)NC(=O)[C@H](C(C)C)NC(=O)[C@H](CC4CCCCC4)NC(=O)[C@H](CCN)NC(=O)[C@@H](CC(C)C)NC(=O)[C@H](C)N(C)C(=O)[C@H](Cc4ccc(C(N)=O)cc4)NC(=O)[C@H](Cc4ccc(-c5ccccc5)cc4)NC3=O)cc2)cc1 [Example 5097] ({CH2CO}-[Dab][Phe(4-COOH)]D[Phe(3-CF3)][Bip(4'-NHAc)][Bip][Phe(4-CONH2)][NMeA][dL][Dab][Cha]VQC[Dab]-NH2; thioether N-14)
4,0.01,CC(=O)Nc1ccc(-c2ccc(C[C@@H]3NC(=O)[C@H](Cc4cccc(C(F)(F)F)c4)NC(=O)[C@H](CC(=O)O)NC(=O)[C@H](Cc4ccc(C(=O)O)cc4)NC(=O)[C@H](CCN)NC(=O)CSC[C@@H](C(=O)N[C@@H](CCN)C(N)=O)NC(=O)[C@H](CC(N)=O)NC(=O)[C@H](C(C)C)NC(=O)[C@H](CC4CCCCC4)NC(=O)[C@H](CCN)NC(=O)[C@@H](CC(C)C)NC(=O)[C@H](C)N(C)C(=O)[C@H](Cc4ccc(C(N)=O)cc4)NC(=O)[C@H](Cc4ccc(-c5ccccc5)cc4)NC3=O)cc2)cc1 [Example 5098] ({CH2CO}-[Dab][Phe(4-COOH)]D[Phe(3-CF3)][Bip(4'-NHAc)][Bip][Phe(4-CONH2)][NMeA][dL][Dab][Cha]VNC[Dab]-NH2; thioether N-14)

# The remaining lines, values behind:
row,SMILES,IC50 [µM]
1,Cc1cccc(C[C@@H]2NC(=O)[C@H](CC(=O)O)NC(=O)[C@H](Cc3ccc(-c4ccc(C(=O)O)cc4)cc3)NC(=O)[C@H](CN3CCOCC3)NC(=O)CSC[C@@H](C(=O)N[C@@H](CCN)C(N)=O)NC(=O)[C@H](CCC(=O)O)NC(=O)[C@H](C(C)C)NC(=O)[C@H](CC3CCCCC3)NC(=O)[C@H](CCN)NC(=O)[C@@H](CC(C)C)NC(=O)[C@H](C)N(C)C(=O)[C@H](Cc3ccc(C(=O)O)cc3)NC(=O)[C@H](Cc3ccc(-c4ccccc4)cc3)NC(=O)[C@H](Cc3ccc(-c4ccc(C(=O)O)cc4)cc3)NC2=O)c1 [Example 5093] ({CH2CO}-[Ala(morpholin-4-yl)][Bip(4'-COOH)]D[Phe(3-Me)][Bip(4'-COOH)][Bip][Phe(4-COOH)][NMeA][dL][Dab][Cha]VEC[Dab]-NH2; thioether N-14),0.16
2,CC(=O)Nc1ccc(-c2ccc(C[C@@H]3NC(=O)[C@H](Cc4cccc(C(F)(F)F)c4)NC(=O)[C@H](CC(=O)O)NC(=O)[C@H](Cc4ccc(C(=O)O)cc4)NC(=O)[C@H](CC(C)C)NC(=O)CSC[C@@H](C(=O)N[C@@H](CCN)C(N)=O)NC(=O)[C@H](CCCN)NC(=O)[C@H](C(C)C)NC(=O)[C@H](CC4CCCCC4)NC(=O)[C@H](CCN)NC(=O)[C@@H](CC(C)C)NC(=O)[C@H](C)N(C)C(=O)[C@H](CCCN)NC(=O)[C@H](Cc4ccc(-c5ccccc5)cc4)NC3=O)cc2)cc1 [Example 5096] ({CH2CO}-L[Phe(4-COOH)]D[Phe(3-CF3)][Bip(4'-NHAc)][Bip][Orn][NMeA][dL][Dab][Cha]V[Orn]C[Dab]-NH2; thioether N-14),0.04
3,CC(=O)Nc1ccc(-c2ccc(C[C@@H]3NC(=O)[C@H](Cc4cccc(C(F)(F)F)c4)NC(=O)[C@H](CC(=O)NS(C)(=O)=O)NC(=O)[C@H](Cc4ccc(C(=O)O)cc4)NC(=O)[C@H]([C@H](C)N)NC(=O)CSC[C@@H](C(=O)N[C@@H](CCN)C(N)=O)NC(=O)[C@H](CCC(N)=O)NC(=O)[C@H](C(C)C)NC(=O)[C@H](CC4CCCCC4)NC(=O)[C@H](CCN)NC(=O)[C@@H](CC(C)C)NC(=O)[C@H](C)N(C)C(=O)[C@H](Cc4ccc(C(N)=O)cc4)NC(=O)[C@H](Cc4ccc(-c5ccccc5)cc4)NC3=O)cc2)cc1 [Example 5099] ({CH2CO}-[Abu(3S-NH2)][Phe(4-COOH)][X5][Phe(3-CF3)][Bip(4'-NHAc)][Bip][Phe(4-CONH2)][NMeA][dL][Dab][Cha]VQC[Dab]-NH2; thioether N-14),0.65
4,Cc1cccc(C[C@@H]2NC(=O)[C@H](CC(=O)O)NC(=O)[C@H](Cc3ccc(OCC(=O)O)cc3)NC(=O)[C@H](CN3CCOCC3)NC(=O)CSC[C@@H](C(=O)N[C@@H](CCN)C(N)=O)NC(=O)[C@H](CCCO)NC(=O)[C@H](C(C)C)NC(=O)[C@H](CC3CCCCC3)NC(=O)[C@H](CCN)NC(=O)[C@@H](CC(C)C)NC(=O)[C@H](C)N(C)C(=O)[C@H](CCC(N)=O)NC(=O)[C@H](Cc3ccc(-c4ccccc4)cc3)NC(=O)[C@H](Cc3cccc(-c4ccc(N)nc4)c3)NC2=O)c1 [Example 5100] ({CH2CO}-[Ala(morpholin-4-yl)]Y(Carboxymethyl)D[Phe(3-Me)][X17][Bip]Q[NMeA][dL][Dab][Cha]V[Nva(5-OH)]C[Dab]-NH2; thioether N-14),0.27

# Same assay, conditions: Jurkat-PD-1 cells, Alexa fluor-647 labeled PD-L1-Ig 177 nM; nM; read-out: CBA Method 3
row,IC50 [µM],SMILES
1,0.0061,CC(=O)Nc1ccc(-c2ccc(C[C@@H]3NC(=O)[C@H](Cc4cccc(C(F)(F)F)c4)NC(=O)[C@H](CC(=O)O)NC(=O)[C@H](Cc4ccc(C(=O)O)cc4)NC(=O)[C@H](CC(C)C)NC(=O)CSC[C@@H](C(=O)N[C@@H](CCN)C(N)=O)NC(=O)[C@H](CC(N)=O)NC(=O)[C@H](C(C)C)NC(=O)[C@H](CC4CCCCC4)NC(=O)[C@H](CCN)NC(=O)[C@@H](CC(C)C)NC(=O)[C@H](C)N(C)C(=O)[C@H](CCCN)NC(=O)[C@H](Cc4ccc(-c5ccccc5)cc4)NC3=O)cc2)cc1 [Example 5095] ({CH2CO}-L[Phe(4-COOH)]D[Phe(3-CF3)][Bip(4'-NHAc)][Bip][Orn][NMeA][dL][Dab][Cha]VNC[Dab]-NH2; thioether N-14)
2,0.0037,CC(C)C[C@H]1NC(=O)[C@H](C)N(C)C(=O)[C@H](Cc2ccc(C(=O)O)cc2)NC(=O)[C@H](Cc2ccc(-c3ccccc3)cc2)NC(=O)[C@H](Cc2ccc(C(N)=O)cc2)NC(=O)[C@H](Cc2cccc(C(F)(F)F)c2)NC(=O)[C@H](CC(=O)O)NC(=O)[C@H](Cc2ccc(C(=O)O)cc2)NC(=O)[C@H]([C@H](C)N)NC(=O)CSC[C@@H](C(=O)N[C@@H](CCN)C(N)=O)NC(=O)[C@H](CC(N)=O)NC(=O)[C@H](C(C)C)NC(=O)[C@H](CC2CCCCC2)NC(=O)[C@H](CCN)NC1=O [Example 5101] ({CH2CO}-[Abu(3S-NH2)][Phe(4-COOH)]D[Phe(3-CF3)][Phe(4-CONH2)][Bip][Phe(4-COOH)][NMeA][dL][Dab][Cha]VNC[Dab]-NH2; thioether N-14)
